Laboratory results reported in article PMC7827406, “Structure–Activity Relationship (SAR) Study of Spautin-1 to Entail the Discovery of Novel NEK4 Inhibitors” (International Journal of Molecular Sciences, 2021).
Read-outs that look alike come from different tables or passages of the source.

Columns and labels:
Experiment in all cases: biochemical
Set-up in all cases: Eurofins KinaseProfiler full panel at Km ATP, residual kinase activity (%) relative to DMSO
[1] = molecular target: T1, PDHK4(h) (Homo sapiens, UniProt Q16654)
T1 construct: gene PDK4
T1 sequence (Q16654 whole entry): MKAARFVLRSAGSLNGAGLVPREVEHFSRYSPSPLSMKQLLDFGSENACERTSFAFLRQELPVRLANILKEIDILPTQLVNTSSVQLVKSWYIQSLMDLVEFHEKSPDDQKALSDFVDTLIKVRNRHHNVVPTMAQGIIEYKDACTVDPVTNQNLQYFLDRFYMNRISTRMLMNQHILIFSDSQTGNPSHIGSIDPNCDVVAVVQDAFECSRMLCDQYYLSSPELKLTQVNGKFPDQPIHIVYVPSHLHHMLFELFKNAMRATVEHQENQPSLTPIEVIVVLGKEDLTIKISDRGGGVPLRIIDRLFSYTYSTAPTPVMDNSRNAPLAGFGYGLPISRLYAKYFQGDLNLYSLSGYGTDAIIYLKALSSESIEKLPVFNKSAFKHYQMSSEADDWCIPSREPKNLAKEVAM
Summary of the method: (§1)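 Radiometric kinase activity assays were run with ATP at Km and compounds at 10 µM, and remaining activity (%) was reported. A separate competitive binding screen measured DNA-tagged kinase displaced from immobilized active-site ligands by qPCR, giving percent kinase still bound at 10 µM compound in DMSO.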

[2] = molecular target: PAK2(h) (Homo sapiens, UniProt Q13177)
Chain of PAK2(h) (Q13177 whole entry): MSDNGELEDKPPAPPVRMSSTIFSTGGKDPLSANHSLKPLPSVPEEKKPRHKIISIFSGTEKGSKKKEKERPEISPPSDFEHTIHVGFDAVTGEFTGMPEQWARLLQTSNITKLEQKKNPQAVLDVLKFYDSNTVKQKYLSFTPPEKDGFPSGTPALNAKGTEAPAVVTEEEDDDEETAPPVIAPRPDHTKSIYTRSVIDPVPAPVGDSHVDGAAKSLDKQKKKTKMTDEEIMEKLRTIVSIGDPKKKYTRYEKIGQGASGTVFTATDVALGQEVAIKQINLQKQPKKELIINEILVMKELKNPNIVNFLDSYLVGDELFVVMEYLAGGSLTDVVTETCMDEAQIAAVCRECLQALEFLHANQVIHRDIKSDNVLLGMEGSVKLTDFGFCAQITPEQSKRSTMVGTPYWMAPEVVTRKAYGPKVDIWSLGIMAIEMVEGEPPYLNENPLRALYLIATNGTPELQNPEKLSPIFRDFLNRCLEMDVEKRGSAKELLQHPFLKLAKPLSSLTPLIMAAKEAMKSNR
Summary of the method: as §1

[3] = molecular target: STK16(h) (Homo sapiens, UniProt O75716)
Chain of STK16(h) (O75716 whole entry): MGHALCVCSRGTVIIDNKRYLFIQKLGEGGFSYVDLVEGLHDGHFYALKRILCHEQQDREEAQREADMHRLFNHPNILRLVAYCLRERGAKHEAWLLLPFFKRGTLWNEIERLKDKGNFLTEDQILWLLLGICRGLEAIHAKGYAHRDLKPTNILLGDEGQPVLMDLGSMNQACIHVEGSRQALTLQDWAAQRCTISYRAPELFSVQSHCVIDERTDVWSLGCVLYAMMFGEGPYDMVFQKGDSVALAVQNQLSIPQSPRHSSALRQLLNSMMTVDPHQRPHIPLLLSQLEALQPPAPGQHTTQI
Summary of the method: as §1

[4] = molecular target: Lck(h) (Homo sapiens, UniProt P06239)
Chain of Lck(h) (P06239 whole entry): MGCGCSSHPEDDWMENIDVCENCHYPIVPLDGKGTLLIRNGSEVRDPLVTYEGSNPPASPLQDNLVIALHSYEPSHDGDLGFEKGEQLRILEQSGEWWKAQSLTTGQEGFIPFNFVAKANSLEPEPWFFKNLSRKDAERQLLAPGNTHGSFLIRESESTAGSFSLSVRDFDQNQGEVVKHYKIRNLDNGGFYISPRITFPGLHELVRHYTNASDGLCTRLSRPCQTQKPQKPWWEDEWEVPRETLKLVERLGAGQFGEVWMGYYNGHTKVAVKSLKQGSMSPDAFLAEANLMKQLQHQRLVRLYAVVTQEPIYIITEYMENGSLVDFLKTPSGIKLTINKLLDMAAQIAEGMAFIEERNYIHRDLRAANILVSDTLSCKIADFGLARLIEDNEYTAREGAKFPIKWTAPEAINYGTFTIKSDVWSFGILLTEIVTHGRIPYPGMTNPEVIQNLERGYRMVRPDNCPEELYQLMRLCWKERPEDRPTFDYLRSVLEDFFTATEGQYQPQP
Summary of the method: as §1

[5] = molecular target: T2, PKAcβ(h) (Homo sapiens, UniProt P22694)
T2 construct: gene PRKACB
Summary of the method: as §1

[6] = molecular target: T3, ASK1(h) (Homo sapiens, UniProt Q99683)
T3 construct: gene MAP3K5
T3 sequence (Q99683 1-1374): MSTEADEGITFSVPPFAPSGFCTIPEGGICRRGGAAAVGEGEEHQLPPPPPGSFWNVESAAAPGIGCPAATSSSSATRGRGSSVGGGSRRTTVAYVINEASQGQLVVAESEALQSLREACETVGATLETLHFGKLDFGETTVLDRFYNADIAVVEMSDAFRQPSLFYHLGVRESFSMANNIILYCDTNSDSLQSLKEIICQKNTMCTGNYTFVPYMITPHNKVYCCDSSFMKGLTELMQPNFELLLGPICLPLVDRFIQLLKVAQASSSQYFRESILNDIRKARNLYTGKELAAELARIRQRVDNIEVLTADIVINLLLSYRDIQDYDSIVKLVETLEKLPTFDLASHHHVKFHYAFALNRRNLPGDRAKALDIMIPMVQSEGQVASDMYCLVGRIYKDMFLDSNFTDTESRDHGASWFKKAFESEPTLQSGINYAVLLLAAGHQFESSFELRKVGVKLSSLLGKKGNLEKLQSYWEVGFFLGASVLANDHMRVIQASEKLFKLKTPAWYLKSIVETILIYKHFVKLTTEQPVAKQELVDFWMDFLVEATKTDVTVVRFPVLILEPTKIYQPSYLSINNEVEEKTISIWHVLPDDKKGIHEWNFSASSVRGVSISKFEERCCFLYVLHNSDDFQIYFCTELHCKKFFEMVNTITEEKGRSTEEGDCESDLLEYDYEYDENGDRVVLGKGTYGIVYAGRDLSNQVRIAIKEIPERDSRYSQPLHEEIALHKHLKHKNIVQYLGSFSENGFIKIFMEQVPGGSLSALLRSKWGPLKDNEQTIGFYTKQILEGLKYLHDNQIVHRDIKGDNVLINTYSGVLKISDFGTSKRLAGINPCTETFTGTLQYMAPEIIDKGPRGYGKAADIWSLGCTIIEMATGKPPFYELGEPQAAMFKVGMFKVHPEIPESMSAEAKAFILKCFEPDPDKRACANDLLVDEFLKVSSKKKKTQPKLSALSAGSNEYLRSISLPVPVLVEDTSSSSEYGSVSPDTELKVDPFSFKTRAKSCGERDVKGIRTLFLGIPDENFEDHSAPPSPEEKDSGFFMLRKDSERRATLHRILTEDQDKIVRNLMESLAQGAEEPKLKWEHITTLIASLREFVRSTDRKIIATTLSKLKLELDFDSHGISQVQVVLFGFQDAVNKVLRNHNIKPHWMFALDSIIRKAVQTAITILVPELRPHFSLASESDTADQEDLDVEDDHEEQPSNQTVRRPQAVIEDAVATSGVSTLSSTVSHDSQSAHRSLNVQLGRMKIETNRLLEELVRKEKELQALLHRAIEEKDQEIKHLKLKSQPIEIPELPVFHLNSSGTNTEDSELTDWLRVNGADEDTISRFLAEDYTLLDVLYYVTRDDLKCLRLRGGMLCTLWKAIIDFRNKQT
Summary of the method: as §1

[7] = read-out: Residual activity (%) 5ay
[8] = read-out: Residual activity (%) Spautin-1 5aa
[9] = read-out: Residual activity (%) 5at
[10] = read-out: Residual activity (%) 5as

COc1ccc2ncnc(Nc3cccc(F)c3)c2c1 [5ay, N-(3-Fluorophenyl)-6-Methoxy-4-Quinazolinamine]
remaining activity at 10 µM [1, 7]: 104% | remaining activity at 10 µM [2, 7]: 98% | remaining activity at 10 µM [3, 7]: 76% | remaining activity at 10 µM [4, 7]: 78% | remaining activity at 10 µM [5, 7]: 85% | remaining activity at 10 µM [6, 7]: 99%

Fc1ccc(CNc2ncnc3ccc(F)cc23)cc1 [5aa, 6-Fluoro-N-(4-fluorobenzyl)-4-Quinazolinamine]
remaining activity at 10 µM [1, 8]: 106% | remaining activity at 10 µM [2, 8]: 87% | remaining activity at 10 µM [3, 8]: 88% | remaining activity at 10 µM [4, 8]: 90% | remaining activity at 10 µM [5, 8]: 87% | remaining activity at 10 µM [6, 8]: 95%

Fc1ccc2ncnc(NCCc3ccc(Cl)cc3)c2c1 [5at, N-[2-(4-Chlorophenyl)Ethyl]-6-Fluoro-4-Quinazolinamine]
remaining activity at 10 µM [1, 9]: 101% | remaining activity at 10 µM [2, 9]: 78% | remaining activity at 10 µM [3, 9]: 78% | remaining activity at 10 µM [4, 9]: 82% | remaining activity at 10 µM [5, 9]: 107% | remaining activity at 10 µM [6, 9]: 80%

Fc1ccc(CCNc2ncnc3ccc(F)cc23)cc1 [5as, 6-Fluoro-N-[2-(4-Fluorophenyl)Ethyl]-4-Quinazolinamine]
remaining activity at 10 µM [1, 10]: 102% | remaining activity at 10 µM [2, 10]: 94% | remaining activity at 10 µM [3, 10]: 75% | remaining activity at 10 µM [4, 10]: 94% | remaining activity at 10 µM [5, 10]: 97% | remaining activity at 10 µM [6, 10]: 85%
